COC(=O)C(C)(C)N=NC(C)(C)C(=O)OC
Settings | solubility (mole fraction)
in ethyl acetate, 285.65 K | 0.558
in ethyl acetate, 288.05 K | 0.611
in ethyl acetate, 290.55 K | 0.668
in ethyl acetate, 293.25 K | 0.744
in isobutanol, 252.65 K | 0.0055
in isobutanol, 256.55 K | 0.0084
in isobutanol, 259.45 K | 0.0111
in isobutanol, 262.95 K | 0.013
in isobutanol, 265.65 K | 0.0155
in isobutanol, 269.35 K | 0.0205
in isobutanol, 273.55 K | 0.0388
in isobutanol, 275.95 K | 0.0587
in isobutanol, 278.15 K | 0.0813
in isobutanol, 280.65 K | 0.122
in isobutanol, 283.45 K | 0.194
in isobutanol, 285.75 K | 0.279
in isobutanol, 288.05 K | 0.355
in isobutanol, 290.95 K | 0.521
in isobutanol, 293.15 K | 0.643
in isopropanol, 252.05 K | 0.0065
in isopropanol, 256.25 K | 0.0081
in isopropanol, 258.95 K | 0.01
in isopropanol, 262.45 K | 0.0141
in isopropanol, 265.75 K | 0.0199
in isopropanol, 268.75 K | 0.0272
in isopropanol, 273.35 K | 0.0484
in isopropanol, 275.45 K | 0.0653
in isopropanol, 278.05 K | 0.0853
in isopropanol, 280.75 K | 0.137
in isopropanol, 283.15 K | 0.189
in isopropanol, 285.45 K | 0.26
in isopropanol, 287.95 K | 0.345
in isopropanol, 290.85 K | 0.5
in isopropanol, 293.15 K | 0.627
in methanol, 252.95 K | 0.0142
in methanol, 255.35 K | 0.0156
in methanol, 257.65 K | 0.0169
in methanol, 261.55 K | 0.0203
in methanol, 265.35 K | 0.0253
in methanol, 267.15 K | 0.0308
in methanol, 273.55 K | 0.0633
in methanol, 275.85 K | 0.0722
in methanol, 278.65 K | 0.0863
in methanol, 280.65 K | 0.122
in methanol, 283.05 K | 0.182
in methanol, 285.55 K | 0.248
in methanol, 288.15 K | 0.364
in methanol, 290.65 K | 0.482
in methanol, 293.15 K | 0.626
in n-butanol, 252.35 K | 0.0064
in n-butanol, 256.35 K | 0.0076
in n-butanol, 259.15 K | 0.0091
in n-butanol, 262.55 K | 0.0111
in n-butanol, 265.55 K | 0.0145
in n-butanol, 269.75 K | 0.0232
in n-butanol, 273.65 K | 0.0385
in n-butanol, 276.15 K | 0.0541
in n-butanol, 278.35 K | 0.0801
in n-butanol, 281.15 K | 0.123
in n-butanol, 283.55 K | 0.18
in n-butanol, 285.65 K | 0.251
in n-butanol, 288.15 K | 0.33
in n-butanol, 291.05 K | 0.486
in n-butanol, 293.15 K | 0.63
in n-propanol, 253.35 K | 0.0088
in n-propanol, 257.05 K | 0.0107
in n-propanol, 259.65 K | 0.0133
in n-propanol, 262.15 K | 0.0162
in n-propanol, 266.25 K | 0.0234
in n-propanol, 271.05 K | 0.0385
in n-propanol, 274.95 K | 0.0613
in n-propanol, 276.65 K | 0.0783
in n-propanol, 278.85 K | 0.098
in n-propanol, 281.15 K | 0.125
in n-propanol, 283.55 K | 0.173
in n-propanol, 286.15 K | 0.25
in n-propanol, 288.45 K | 0.352
in n-propanol, 291.05 K | 0.47
in n-propanol, 293.15 K | 0.611
in tetrachloromethane, 252.55 K | 0.109
in tetrachloromethane, 256.95 K | 0.125
in tetrachloromethane, 260.35 K | 0.144
in tetrachloromethane, 264.05 K | 0.182
in tetrachloromethane, 266.85 K | 0.214
in tetrachloromethane, 269.55 K | 0.242
in tetrachloromethane, 273.65 K | 0.314
in tetrachloromethane, 276.15 K | 0.349
in tetrachloromethane, 278.45 K | 0.393
in tetrachloromethane, 280.75 K | 0.445
in tetrachloromethane, 283.35 K | 0.506
in tetrachloromethane, 285.75 K | 0.564
in tetrachloromethane, 288.15 K | 0.632
in tetrachloromethane, 290.55 K | 0.696
in toluene, 253.45 K | 0.104
in toluene, 256.35 K | 0.119
in toluene, 259.55 K | 0.141
in toluene, 262.55 K | 0.161
in toluene, 264.85 K | 0.184
in toluene, 269.55 K | 0.237
in toluene, 273.65 K | 0.286
in toluene, 276.05 K | 0.326
in toluene, 278.25 K | 0.367
in toluene, 280.65 K | 0.41
in toluene, 283.15 K | 0.47
in toluene, 285.55 K | 0.545
in toluene, 288.05 K | 0.597
in toluene, 290.95 K | 0.67
in toluene, 293.15 K | 0.731

Source: BigSolDB 2.1
